Experiment [1] has as its target T1, beta-catenin/TCF4 engagement (Homo sapiens, UniProt P35222).
T1 construct: expressed in transfected cells; host or cells: HEK293
T1 sequence (P35222 1-781): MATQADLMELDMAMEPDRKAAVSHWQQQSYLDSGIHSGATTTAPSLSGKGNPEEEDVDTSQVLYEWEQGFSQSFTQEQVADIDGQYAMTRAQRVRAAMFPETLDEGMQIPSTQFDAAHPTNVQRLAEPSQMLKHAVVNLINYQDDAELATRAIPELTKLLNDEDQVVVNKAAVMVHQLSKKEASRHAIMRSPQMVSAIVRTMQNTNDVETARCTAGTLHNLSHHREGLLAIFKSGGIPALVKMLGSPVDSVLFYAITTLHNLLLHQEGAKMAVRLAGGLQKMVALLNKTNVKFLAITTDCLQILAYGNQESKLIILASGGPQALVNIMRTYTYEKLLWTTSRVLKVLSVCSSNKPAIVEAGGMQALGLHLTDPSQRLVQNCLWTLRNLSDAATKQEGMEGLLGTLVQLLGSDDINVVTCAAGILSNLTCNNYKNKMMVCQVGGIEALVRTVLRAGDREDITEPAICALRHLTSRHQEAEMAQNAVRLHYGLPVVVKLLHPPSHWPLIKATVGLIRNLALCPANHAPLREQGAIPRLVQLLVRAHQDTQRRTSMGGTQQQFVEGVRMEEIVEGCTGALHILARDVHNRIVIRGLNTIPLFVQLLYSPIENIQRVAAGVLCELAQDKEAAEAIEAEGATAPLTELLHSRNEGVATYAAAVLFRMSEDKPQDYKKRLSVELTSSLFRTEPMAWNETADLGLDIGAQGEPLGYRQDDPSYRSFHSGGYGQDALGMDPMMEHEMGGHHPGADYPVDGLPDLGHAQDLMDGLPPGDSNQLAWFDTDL
Nature of the experiment: Nano-BRET target engagement assay (B-cat-Halo & TCF4-Luc in HEK293 cells). It counts as cell-based. As to conditions: absolute IC50; read-out: NanoBRET Abs IC50. (Bioluminescence resonance energy transfer reports proximity on the nanometre scale.)

Another experiment concerns COLO320DM cells. The format is cell-based. Particulars: COLO320DM cells, absolute IC50; read-out: COLO320DM Proliferation Abs IC50. Here is the method:
COLO320DM proliferation assay IC50: In some embodiments, inhibition of cell proliferation by provided technologies were assessed using cell lines related to or from certain conditions, disorders or diseases. In some embodiments, cell proliferation was assessed in COLO320DM cells. In some embodiments, assessment was performed using the following procedure: On Day 1, cultured COLO320DM cells in a T75 flask were trypsinized in 3 mL of 0.25% trypsin/EDTA for 5 min and quenched with 10 mL RPMI-1640+4% HI FBS assay media. The cells were spun down at 1200 rpm for 5 min, the cell pellet collected and re-suspended at 5000 cells/mL in assay media. Using a Combi liquid handler, cells were dispensed (50 uL, 250 cells/well) into three 384 well plates. Plates were incubated at 37° C., […]. On day 2, compounds were added. A liquid handling system was used to prepare the compound dilution and dispense compound into assay plates. The compounds were serially diluted 1/2 in 90% DMSO to create a 7 point dose curve. From compound plate, 100 nL of compound were dispensed directly into wells of the assay plates to create a dose curve starting at 20 uM and ending at 313 nM. Assay plates were incubated at 37° C., […]. On day 6, assay plates were removed from the incubator and allowed to sit at room temperature for 30 min. Using a liquid handler, 20 uL of CellTiter Glo reagent was added to each well. The assay plates were shaken for 2 min and allowed to sit on the bench for 10-15 minutes. The assay plates were read using the CellTiter Glo protocol on a GloMax microplate reader, and the data analyzed using GraphPad Prism.

Experiment [2] addresses T2, full-length beta-Catenin (Uniprot ID P35222) (Homo sapiens, UniProt P35222).
T2 construct: 10 nM full-length beta-Catenin (Uniprot ID P35222)
T2 sequence (P35222 1-781): T1 sequence (P35222 1-781)
The experiment can be described thus: Fluorescence polarization IC50 (beta-catenin / 5FAM-TCF4 10-53 competition). It counts as binding. As to conditions: fluorescence polarization; read-out: beta-Catenin FP IC50. (In general: Fluorescence polarisation rises when a labelled molecule tumbles more slowly, as on binding a larger partner.)

pIC50: −log10 of the molar value.

Experimental findings from patent US20240116985A1, “STAPLED PEPTIDES AND METHODS THEREOF” (priority 2020, published 2024) are described below.

With `CC(=O)N1CCC[C@]12CC=CCCCC1(CCCC=CCCCOC(=O)N3CC[C@@](C(=O)N[C@@H](Cc4ccsc4)C(=O)N[C@@H](Cc4csc5ccccc45)C(=O)N[C@@H](CC(N)=O)C(=O)N[C@@H](C)C(=O)NC(C)(C)C(=O)N[C@@H](C)C(N)=O)(C3)NC(=O)[C@H](CC(C)C)NC(=O)[C@H](Cc3ccccc3)NC(=O)[C@H](C)NC(=O)[C@H](C)NC(=O)[C@H](Cc3cccc(C(=O)O)c3)NC(=O)[C@H](CC(=O)O)NC1=O)NC(=O)[C@H](CC(C)(C)C)NC(=O)[C@H](CC(=O)O)NC2=O` (stereo partly drawn) [I-2271, Ac-PL3-Asp-Npg-B5-Asp-3COOHF-Ala-Ala-Phe-Leu-PyrS2-3Thi-BztA-Asn-Ala-Aib-Ala-NH2], the pIC50 was 5.64 in experiment [1], 5.05 with COLO320DM cells and 7.89 in experiment [2].

On to `CC(=O)N1CCC[C@]12CC=CCCCC1(CCCC=CCCCOC(=O)N3CC[C@@](C(=O)N[C@@H](Cc4ccsc4)C(=O)N[C@@H](Cc4csc5ccccc45)C(=O)N[C@@H](CC(N)=O)C(=O)N[C@@H](CC(C)C)C(N)=O)(C3)NC(=O)[C@H](CC(C)C)NC(=O)[C@H](Cc3ccccc3)NC(=O)[C@H](C)NC(=O)[C@H](C)NC(=O)[C@H](Cc3cccc(C(=O)O)c3)NC(=O)[C@H](CC(=O)O)NC1=O)NC(=O)[C@H](CC(C)(C)C)NC(=O)[C@H](CC(=O)O)NC2=O` (stereo partly drawn) [I-2274, Ac-PL3-Asp-Npg-B5-Asp-3COOHF-Ala-Ala-Phe-Leu-PyrS2-3Thi-BztA-Asn-Leu-NH2], for which the pIC50 is 5.70 in experiment [1], 5.21 in the experiment on COLO320DM cells and 8.00 in experiment [2].

As for `CC(=O)N1CCC[C@]12CC=CCCCC1(CCCC=CCCCOC(=O)N3CC[C@@](C(=O)N[C@@H](Cc4ccccc4C(F)(F)F)C(=O)N[C@@H](Cc4csc5ccccc45)C(=O)N[C@@H](CCC(=O)N(C)C)C(N)=O)(C3)NC(=O)[C@H](CC(C)C)NC(=O)[C@H](Cc3ccccc3)NC(=O)[C@H](C)NC(=O)[C@H](CCC(=O)N(C)C)NC(=O)[C@H](Cc3cccc(C(=O)O)c3)NC(=O)[C@H](CC(=O)O)NC1=O)NC(=O)[C@H](CC(C)(C)C)NC(=O)[C@H](CC(=O)O)NC2=O` (stereo partly drawn) [I-2300, Ac-PL3-Asp-Npg-B5-Asp-3COOHF-[NMe2]GlnR-Ala-Phe-Leu-PyrS2-2F3MeF-BztA-INMe2]GlnR-NH2], the figures for the pIC50 (in experiment [1]; with COLO320DM cells; in experiment [2]) were 5.92, less than 4.70 and 8.22, respectively.

In the case of `CC(=O)N1CCC[C@]12CC=CCCCC1(CCCC=CCCCOC(=O)N3CC[C@@](C(=O)N[C@@H](Cc4ccccc4C(F)(F)F)C(=O)N[C@@H](Cc4csc5ccccc45)C(=O)N[C@@H](C)C(N)=O)(C3)NC(=O)[C@H](CC(C)C)NC(=O)[C@H](Cc3ccccc3)NC(=O)[C@H](C)NC(=O)[C@H](CCC(=O)N3CCOCC3)NC(=O)[C@H](Cc3cccc(C(=O)O)c3)NC(=O)[C@H](CC(=O)O)NC1=O)NC(=O)[C@H](CC(C)(C)C)NC(=O)[C@H](CC(=O)O)NC2=O` (stereo partly drawn) [I-2315, Ac-PL3-Asp-Npg-B5-Asp-3COOHF-[Morph]GlnR-Ala-Phe-Leu-PyrS2-2F3MeF-BztA-Ala-NH2], the pIC50 is 5.92 in experiment [1], less than 4.70 in the experiment with COLO320DM cells and 8.30 in experiment [2].

As for `CC(=O)N1CCC[C@]12CC=CCCCC1(CCCC=CCCCOC(=O)N3CC[C@@](C(=O)N[C@@H](Cc4ccccc4C(F)(F)F)C(=O)N[C@@H](Cc4csc5ccccc45)C(=O)N[C@@H](C)C(N)=O)(C3)NC(=O)[C@H](CC(C)C)NC(=O)[C@H](Cc3ccccc3)NC(=O)[C@H](C)NC(=O)[C@H](CCC(=O)N3CCN(CC(F)(F)F)CC3)NC(=O)[C@H](Cc3cccc(C(=O)O)c3)NC(=O)[C@H](CC(=O)O)NC1=O)NC(=O)[C@H](CC(C)(C)C)NC(=O)[C@H](CC(=O)O)NC2=O` (stereo partly drawn) [I-2316, Ac-PL3-Asp-Npg-B5-Asp-3COOHF-[TfePpz]GlnR-Ala-Phe-Leu-PyrS2-2F3MeF-BztA-Ala-NH2], the pIC50 is 5.80 in experiment [1], less than 4.70 in the experiment on COLO320DM cells and 7.96 in experiment [2].

For the compound `CC(=O)N1CCC[C@]12CC=CCCCC1(CCCC=CCCCOC(=O)N3CC[C@@](C(=O)N[C@@H](Cc4ccccc4C(F)(F)F)C(=O)N[C@@H](Cc4csc5ccccc45)C(=O)N[C@@H](C)C(N)=O)(C3)NC(=O)[C@H](CC(C)C)NC(=O)[C@H](Cc3ccccc3)NC(=O)[C@H](C)NC(=O)[C@H](CCC(=O)N3CCNC(=O)C3)NC(=O)[C@H](Cc3cccc(C(=O)O)c3)NC(=O)[C@H](CC(=O)O)NC1=O)NC(=O)[C@H](CC(C)(C)C)NC(=O)[C@H](CC(=O)O)NC2=O` (stereo partly drawn) [I-2318, Ac-PL3-Asp-Npg-B5-Asp-3COOHF-[2OxoPpz]GlnR-Ala-Phe-Leu-PyrS2-2F3MeF-BztA-Ala-NH2], the results for the pIC50 (in experiment [1]; in the experiment on COLO320DM cells; in experiment [2]) were 5.74, less than 4.70 and 8.30, respectively.

For the compound `CC(=O)N1CCC[C@]12CC=CCCCC1(CCCC=CCCCOC(=O)N3CC[C@@](C(=O)N[C@@H](Cc4ccccc4C(F)(F)F)C(=O)N[C@@H](Cc4csc5ccccc45)C(=O)N[C@@H](C)C(N)=O)(C3)NC(=O)[C@H](CC(C)C)NC(=O)[C@H](Cc3ccccc3)NC(=O)[C@H](C)NC(=O)[C@H](CCC(=O)N3Cc4ccccc4C3)NC(=O)[C@H](Cc3cccc(C(=O)O)c3)NC(=O)[C@H](CC(=O)O)NC1=O)NC(=O)[C@H](CC(C)(C)C)NC(=O)[C@H](CC(=O)O)NC2=O` (stereo partly drawn) [I-2320, Ac-PL3-Asp-Npg-B5-Asp-3COOHF-[isoindoline]GlnR-Ala-Phe-Leu-PyrS2-2F3MeF-BztA-Ala-NH2], the pIC50 was 5.57 in experiment [1], less than 4.70 in the experiment with COLO320DM cells and 7.54 in experiment [2].

As for `COCCN(CCOC)C(=O)CC[C@@H]1NC(=O)[C@H](Cc2cccc(C(=O)O)c2)NC(=O)[C@H](CC(=O)O)NC(=O)C2(CCCC=CCCCOC(=O)N3CC[C@@](C(=O)N[C@@H](Cc4ccccc4C(F)(F)F)C(=O)N[C@@H](Cc4csc5ccccc45)C(=O)N[C@@H](C)C(N)=O)(C3)NC(=O)[C@H](CC(C)C)NC(=O)[C@H](Cc3ccccc3)NC(=O)[C@H](C)NC1=O)CCCC=CC[C@]1(CCCN1C(C)=O)C(=O)N[C@@H](CC(=O)O)C(=O)N[C@@H](CC(C)(C)C)C(=O)N2` (stereo partly drawn) [I-2322, Ac-PL3-Asp-Npg-B5-Asp-3COOHF-[bismethoxyethylamine]GlnR-Ala-Phe-Leu-PyrS2-2F3MeF-BztA-Ala-NH2], the figures for the pIC50 (in experiment [1]; in the experiment on COLO320DM cells; in experiment [2]) were 5.74, less than 4.70 and 8.15, respectively.

For the compound `CC(=O)N1CCC[C@]12CC=CCCCC1(CCCC=CCCCOC(=O)N3CC[C@@](C(=O)N[C@@H](Cc4ccccc4C(F)(F)F)C(=O)N[C@@H](Cc4csc5ccccc45)C(=O)N[C@@H](CCC(N)=O)C(=O)N[C@@H](CC(C)C)C(=O)N[C@@H](CC(C)C)C(N)=O)(C3)NC(=O)[C@H](CC(C)C)NC(=O)[C@H](Cc3ccccc3)NC(=O)[C@H](C)NC(=O)[C@H](C)NC(=O)[C@H](Cc3cccc(C(=O)O)c3)NC(=O)[C@H](CC(=O)O)NC1=O)NC(=O)[C@H](CC(C)(C)C)NC(=O)[C@H](CC(=O)O)NC2=O` (stereo partly drawn) [I-2380, Ac-PL3-Asp-Npg-B5-Asp-3COOHF-Ala-Ala-Phe-Leu-PyrS2-2F3MeF-BztA-Gln-Leu-Leu-NH2], the values for the pIC50 (in experiment [1]; with COLO320DM cells; in experiment [2]) were 5.57, less than 4.70 and 6.48, respectively.
